Holding throughout (assay): inhibition of tumour cell growth, NCI panel, 48 h
The subject of assay [1] is K562.
Assay [2] concerns SK-MEL-2.
For assay [3], the system named is PC-3.
In assay [4] the test system is A498.
The test system of assay [5] is SN12C.
Assay [6] relates to UACC-257.
The subject of assay [7] is M14.
In assay [8] the test system is NCI-H522.
Assay [9] deals with SW-620.
Assay [10] concerns SF-268.
Assay [11] relates to SK-OV-3.
For assay [12], the system named is T47D.
Assay [13] has as its system SR.
Assay [14] has as its system BT-549.
Assay [15] concerns HOP-92.
The test system of assay [16] is IGROV-1.
In assay [17] the test system is HCT-116.
The subject of assay [18] is DMS-273.
For assay [19], the system named is DMS-114.

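Grown in 96-well plates, cells were treated for 48 hours with each compound at five concentrations. Insufficient inhibition: endpoint recorded as highest concentration tested. The concentration for 50% growth inhibition is given as GI50.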 Activity calls are given as the source filed them. Cut-off read from the data, not from the text of the source: active = GI50 up to about 1.1 µM and inactive = higher.

Turning to `COc1ccc2c(c1)CCCc1c-2nc2ccccc2c1N`, the GI50 in [1] was 5.14 µM (inactive); in assay [2], 15.7 µM (inactive); in assay [3] it was 10.3 µM (inactive); in assay [4], 8.24 µM (inactive); in [5] it was 4.38 µM (inactive); in assay [6] it was 2.45 µM (inactive). For the same compound, the GI50 was 9.1 µM (inactive) in [7]; 13.6 µM (inactive) in assay [8]; 10.7 µM (inactive) in assay [9]; 15.3 µM (inactive) in [10]; 10.4 µM (inactive) in [11]; 12.4 µM (inactive) in [12]. Also, the GI50 in assay [13] was 2.57 µM (inactive); in assay [14], 16.2 µM (inactive); in [15], 5.73 µM (inactive); in assay [16], 12.4 µM (inactive); in [17] it was 5.81 µM (inactive).

On to `N=C(N)NS(=O)(=O)c1ccc(Nc2c3ccccc3nc3c(C(=O)NCCO)cccc23)cc1`, for which the GI50 is 0.216 µM (active) in assay [1]; 0.199 µM (active) in [2]; 0.21 µM (active) in [3]; 0.13 µM (active) in assay [4]; 0.202 µM (active) in [5]; 0.243 µM (active) in assay [6]. Moreover, the GI50 is 0.183 µM (active) in assay [7]; 0.158 µM (active) in assay [8]; 0.188 µM (active) in assay [9]; 0.171 µM (active) in [10]; 0.236 µM (active) in [11]; 0.148 µM (active) in [12]. In addition, the GI50 is 0.136 µM (active) in assay [13]; 0.143 µM (active) in assay [14]; 0.192 µM (active) in assay [15]; 0.141 µM (active) in assay [16]; 0.223 µM (active) in assay [17].

For the compound `CC(=O)c1cc(I)c(O)c2ncccc12`, the GI50 in assay [1] was 7.55 µM (inactive); in assay [2], 6.35 µM (inactive); in assay [3], 5.71 µM (inactive); in [4], 2.85 µM (inactive); in [5], 3.69 µM (inactive); in [6] it was 2.66 µM (inactive). The GI50 in assay [7] is 1.97 µM (inactive); in assay [8], 3.6 µM (inactive); in assay [9], 4.17 µM (inactive); in [10], 3.22 µM (inactive); in assay [11], 4.27 µM (inactive); in assay [12], 5.74 µM (inactive). Besides, the GI50 in assay [13] is 2.91 µM (inactive); in assay [14], 5.07 µM (inactive); in assay [15], 2.07 µM (inactive); in [16], 2.94 µM (inactive); in [17] it was 2.94 µM (inactive).

`CN(C)CCOc1ccc2[nH]c(C(=O)N3CC(CCl)c4c3cc(N)c3ccccc43)cc2c1` (configuration not stated): the GI50 in assay [1], in [2], in [3], in assay [4], in [5] and in assay [6] was < 0.01 µM (active) throughout. The GI50 in [7], in assay [8], in assay [9], in [10], in assay [11] and in assay [12] was < 0.01 µM (active) throughout. Further, the GI50 in [13], in assay [14], in assay [15], in assay [16] and in assay [17] was < 0.01 µM (active) in each case.

In the case of `Cc1ccc(C(=O)N/N=C(\N=N\c2cccc([N+](=O)[O-])c2)c2ccc(N(CCC#N)CCC#N)cc2C)cc1`, the GI50 was 22.8 µM (inactive) in assay [1]; 26.9 µM (inactive) in assay [2]; 23.8 µM (inactive) in assay [3]; 25.8 µM (inactive) in assay [4]; 46.6 µM (inactive) in assay [5]; 10.6 µM (inactive) in [6]. Moreover, the GI50 in assay [7] is 33.4 µM (inactive); in assay [8], 20.4 µM (inactive); in assay [9], 38.7 µM (inactive); in assay [10], 33.6 µM (inactive); in assay [11], 36.8 µM (inactive); in assay [12], 9.18 µM (inactive). Further, the GI50 in assay [13] is 21.6 µM (inactive); in assay [14], 19.6 µM (inactive); in [15] it was 45.9 µM (inactive); in [16] it was 19.2 µM (inactive); in assay [17] it was 28.4 µM (inactive).

As to `O=C(Cn1cc(Br)c(=O)[nH]c1=O)c1ccc(-c2ccccc2)cc1`, the GI50 in assay [1] is > 11.2 µM (inactive); in [2], > 12.4 µM (inactive); in assay [3], > 17.8 µM (inactive); in assay [4] it was > 100 µM (inactive); in assay [5] it was 16.1 µM (inactive); in [6], 15.9 µM (inactive). For the same compound, the GI50 is > 15.1 µM (inactive) in [7]; 5.57 µM (inactive) in assay [8]; > 17.5 µM (inactive) in [9]; 4.71 µM (inactive) in [10]; > 58.6 µM (inactive) in assay [11]; > 100 µM (inactive) in [12]. Moreover, the GI50 in assay [13] is > 17 µM (inactive); in assay [14] it was 3.18 µM (inactive); in assay [15], 6.89 µM (inactive); in assay [16], 15.7 µM (inactive); in assay [17], > 16 µM (inactive).

On to `COC1=CC(=O)c2ccccc2C1(CCC=C(C)C)C1=NC(C)(C)CO1` (configuration not stated), for which the GI50 in assay [1] was 28.4 µM (inactive); in assay [2], 83.6 µM (inactive); in assay [18], 72.4 µM (inactive); in assay [5], 94.6 µM (inactive); in [6] it was 54.6 µM (inactive); in [7] it was > 100 µM (inactive). Moreover, the GI50 in assay [8] was 42.4 µM (inactive); in assay [9], > 100 µM (inactive); in assay [10] it was > 100 µM (inactive); in assay [11], 86.5 µM (inactive); in assay [13] it was 40.3 µM (inactive); in assay [15], 99.3 µM (inactive). The results for the GI50 in assay [16] and in assay [17] were 84.5 µM (inactive) and 48.4 µM (inactive), respectively.

On to `CCC1=CCN(c2cc(C)ccn2)OC1c1ccc(OC)cc1` (configuration not stated), for which the GI50 in assay [1] was 34 µM (inactive); in [2] it was 16.9 µM (inactive); in assay [5], 26 µM (inactive); in assay [6], 23.6 µM (inactive); in assay [7] it was 32.5 µM (inactive); in assay [8] it was 16 µM (inactive). The GI50 is 38.1 µM (inactive) in [9]; 45.1 µM (inactive) in assay [10]; 48.8 µM (inactive) in [11]; 27.9 µM (inactive) in [19]; 25.5 µM (inactive) in assay [13]; 55.7 µM (inactive) in [16]. In addition, in [17], the GI50 is 21.2 µM (inactive).

As to `Cc1ccc2c(c1)/C(=N/Nc1ccccc1[N+](=O)[O-])C(=O)N2`, the GI50 in assay [1] was 27.9 µM (inactive); in assay [2] it was > 100 µM (inactive); in assay [3], 24.8 µM (inactive); in [4], 4.18 µM (inactive); in assay [5], 3.82 µM (inactive); in [6], 13.9 µM (inactive). The GI50 in assay [7] was 81.5 µM (inactive); in [8], 2.31 µM (inactive); in assay [9] it was 35.3 µM (inactive); in [10] it was 3.4 µM (inactive); in assay [11] it was 4.68 µM (inactive); in assay [12] it was 2.83 µM (inactive). Moreover, the GI50 in [13] is 4.06 µM (inactive); in [14] it was 45.8 µM (inactive); in assay [15], 2.92 µM (inactive); in assay [16], 1.68 µM (inactive); in [17], 3.01 µM (inactive).

Consider `O=C(Cc1csc2[n+]1C(=O)/C(=C/c1ccc(Cl)cc1)S2)Nc1ccccc1`, for which the GI50 in assay [1] is 21.7 µM (inactive); in assay [2] it was 17.9 µM (inactive); in assay [3], 16.4 µM (inactive); in assay [4] it was 15.7 µM (inactive); in [5], 32.1 µM (inactive); in assay [6], 19.2 µM (inactive). Besides, the GI50 was 28.1 µM (inactive) in [7]; 15.3 µM (inactive) in assay [8]; 26.4 µM (inactive) in assay [9]; 21.5 µM (inactive) in assay [10]; 19.4 µM (inactive) in [11]; 16.4 µM (inactive) in [12]. Besides, the GI50 in [13] is 24.3 µM (inactive); in assay [14], 22.5 µM (inactive); in [15] it was 26.6 µM (inactive); in [16] it was 16.9 µM (inactive); in assay [17], 16.8 µM (inactive).

In the case of `O=C(O)C1C(Br)(c2ccccc2)C1(Br)c1ccccc1` (configuration not stated), the GI50 in assay [1] is 20.1 µM (inactive); in [2] it was 37.5 µM (inactive); in assay [3], 36.5 µM (inactive); in assay [4], 25.5 µM (inactive); in assay [5], 34.4 µM (inactive); in [6], 48.9 µM (inactive). Further, the GI50 in assay [7] is 48.2 µM (inactive); in assay [8] it was 17.6 µM (inactive); in assay [9], 31.4 µM (inactive); in assay [10] it was 24.3 µM (inactive); in assay [11], 27.5 µM (inactive); in [12] it was 17.6 µM (inactive). The GI50 is 2.88 µM (inactive) in [13]; 19.9 µM (inactive) in [14]; 42.7 µM (inactive) in assay [15]; 17.8 µM (inactive) in assay [16]; 39.7 µM (inactive) in [17].

For `CC(C)=CCC/C(C)=C/CC/C(C)=C/CC/C(=C/CC/C(C)=C\CC/C(C)=C/CC/C(C)=C/CC/C(C)=C/Cc1cc(O)ccc1O)CO`, the GI50 in assay [1] is 17.7 µM (inactive); in assay [2] it was 3.32 µM (inactive); in assay [3] it was 4.2 µM (inactive); in assay [4] it was 5.33 µM (inactive); in [5] it was 17.6 µM (inactive); in assay [6], 3.07 µM (inactive). The GI50 was 0.681 µM (active) in assay [7]; 1.57 µM (inactive) in assay [8]; 8.71 µM (inactive) in [9]; 2.67 µM (inactive) in assay [10]; 10.9 µM (inactive) in assay [11]; 6.05 µM (inactive) in assay [12]. Moreover, the GI50 in assay [13] is 3.26 µM (inactive); in [14] it was 3.6 µM (inactive); in [15] it was 9.59 µM (inactive); in [16], 2.86 µM (inactive); in assay [17], 2.84 µM (inactive).

Source of the values: ChEMBL document CHEMBL1201862, “PubChem BioAssay data set” (2004).
